Source: patent US20090155903A1, “PHARMACEUTICAL COMPOSITION AND METHOD” (Myriad Genetics, Incorporated, priority 2004, published 2009)

Tests used:
COX1 = molecular target: T1, COX1 (Ovis aries, UniProt P05979); assay: COX inhibitor screening kit (Cayman Chemical), COX1; assay type: biochemical; details: 100 μM compound
T1 construct: purchased Cayman Chemical, Ann Arbor, Mich; 560131
T1 sequence (P05979 25-600): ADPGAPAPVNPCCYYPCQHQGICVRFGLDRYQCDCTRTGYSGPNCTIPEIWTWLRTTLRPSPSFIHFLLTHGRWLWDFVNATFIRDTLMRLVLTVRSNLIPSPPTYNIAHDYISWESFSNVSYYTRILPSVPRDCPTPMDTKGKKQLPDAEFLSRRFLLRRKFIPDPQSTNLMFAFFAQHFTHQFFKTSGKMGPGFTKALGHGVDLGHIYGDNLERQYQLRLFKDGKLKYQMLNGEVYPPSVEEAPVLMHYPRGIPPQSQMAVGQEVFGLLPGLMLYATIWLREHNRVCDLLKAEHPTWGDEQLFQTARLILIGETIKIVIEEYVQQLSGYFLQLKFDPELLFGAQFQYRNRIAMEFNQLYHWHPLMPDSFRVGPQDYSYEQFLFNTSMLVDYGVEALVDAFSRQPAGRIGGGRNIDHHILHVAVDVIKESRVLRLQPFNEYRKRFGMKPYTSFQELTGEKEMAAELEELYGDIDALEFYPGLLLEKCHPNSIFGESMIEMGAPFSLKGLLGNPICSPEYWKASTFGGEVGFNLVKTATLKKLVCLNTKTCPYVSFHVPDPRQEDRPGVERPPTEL
Protocol: (§1) The invention is based on the fact that the inventors have discovered that compounds of the formulae above lower Aβ42 Levels in in vitro APP processing assays. Furthermore, the compounds, in general, have negligible levels of COX inhibition and therefore are thought to essentially be devoid of the deleterious side-effects associated with COX inhibition. […] Preferred compounds of the formulae for use in the invention are those that have little or negligible COX1 and/or COX2 inhibition at 1 μM, more preferred are those that little or negligible COX1 and/or COX2 inhibition at 10 μM, and more preferred are those that little or negligible COX1 and/or COX2 inhibition at 100 μM compound. COX1 and COX2 inhibition can be determined with a COX inhibitor screening kit from e.g., Cayman Chemical, Ann Arbor, Mich. (Cat. #560131).
(§2) The invention is related to the inventors' discovery that compounds of Formula I-Va lower Aβ42 levels in APP processing assays. Furthermore, compounds of Formula I-Va, in general, have negligible levels of COX inhibition and therefore are thought to essentially be devoid of the deleterious side-effects associated with COX inhibition. […] Preferred compounds of Formula I-Va for use in the invention are those that have little or negligible COX1 and/or COX2 inhibition at 1 μM, more preferred are those that have little or negligible COX1 and/or COX2 inhibition at 10 μM, and more preferred are those that have little or negligible COX1 and/or COX2 inhibition at 100 μM compound. COX1 and COX2 inhibition can be determined with a COX inhibitor screening kit from e.g., Cayman Chemical, Ann Arbor, Mich. (Cat. #560131). […] Representative compounds found to lower Aβ42 levels using the previously described assay by at least 50% of DMSO control at concentrations ranging from 30-80 μM include compounds 1, 11, 21, 22, 24, 25, 26, 38, 43, 64, 67, 98, 100, and 102. Particularly preferred compounds of Formula I-Va for use in the methods and embodiments of the invention include those in Tables 2-7 below.

COX2 = molecular target: T2, COX2 (Homo sapiens, UniProt P35354); assay: COX inhibitor screening kit (Cayman Chemical), COX2; assay type: biochemical; details: 100 μM compound
T2 construct: purchased Cayman Chemical, Ann Arbor, Mich; 560131
T2 sequence (P35354 18-604): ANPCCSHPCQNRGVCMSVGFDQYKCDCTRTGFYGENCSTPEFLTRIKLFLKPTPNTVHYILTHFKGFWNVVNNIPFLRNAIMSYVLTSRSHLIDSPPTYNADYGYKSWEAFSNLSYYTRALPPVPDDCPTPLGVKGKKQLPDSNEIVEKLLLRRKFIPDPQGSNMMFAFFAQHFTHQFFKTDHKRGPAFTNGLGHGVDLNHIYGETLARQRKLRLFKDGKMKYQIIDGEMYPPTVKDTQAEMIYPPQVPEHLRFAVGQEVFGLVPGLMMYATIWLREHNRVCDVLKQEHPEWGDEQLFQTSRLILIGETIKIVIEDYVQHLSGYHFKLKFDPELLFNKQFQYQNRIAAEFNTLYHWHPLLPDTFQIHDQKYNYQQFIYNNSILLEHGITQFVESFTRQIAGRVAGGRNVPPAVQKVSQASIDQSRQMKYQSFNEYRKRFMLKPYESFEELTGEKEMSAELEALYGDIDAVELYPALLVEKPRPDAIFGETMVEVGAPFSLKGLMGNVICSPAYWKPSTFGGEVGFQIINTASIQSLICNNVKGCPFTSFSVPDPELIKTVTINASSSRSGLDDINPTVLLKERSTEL
Protocol: as §1, §2

[1] = clinical trials; rofecoxib at 25 mg daily; cited from earlier work
[2] = patients with mild cognitive impairment; 4.5% for placebo; cited from earlier work

| SMILES | inhibition of COX1 (COX1) | inhibition of COX2 (COX2) | efficacy for treating AD [1] | patients who developed AD [2] [%] |
| --- | --- | --- | --- | --- |
| Cc1c(CC(=O)O)c2ccccc2n1C(=O)c1ccc(OC(F)(F)F)cc1 [Compound 10, 1-(4-trifluoromethoxybenzoyl)-2-methylindole-3-acetic acid] | not significantly inhibit | not significantly inhibit | – | – |
| Cc1c(CC(=O)O)c2ccccc2n1Cc1ccc(Br)cc1 [Compound 19, 1-(4-bromobenzyl)-2-methylindole-3-acetic acid] | not significantly inhibit | not significantly inhibit | – | – |
| O=C(O)c1cc([N+](=O)[O-])ccc1NCc1ccc(Cl)c(Cl)c1 [Compound 40, 2-(3,4-dichlorobenzylamino)-5-nitrobenzoic acid] | not significantly inhibit | not significantly inhibit | – | – |
| O=C(O)c1cc([N+](=O)[O-])ccc1NCc1cccc(Cl)c1 [Compound 43, 2-(3-chlorobenzylamino)-5-nitrobenzoic acid] | not significantly inhibit | not significantly inhibit | – | – |
| COc1ccc(-c2cccc(CC(=O)O)c2)cc1 [Compound 72, (4′-Methoxy-biphenyl-3-yl)-acetic acid] | not significantly inhibit | not significantly inhibit | – | – |
| O=C(O)c1cc2cc(OCc3ccccc3)ccc2n1Cc1ccc(C(F)(F)F)cc1 [Compound 97, 5-benzyloxy-1-(4-trifluoromethylbenzyl)-1H-indole-2-carboxylic acid] | not significantly inhibit | not significantly inhibit | – | – |
| COc1ccc2cc([C@H](C)C(=O)O)ccc2c1 [Naproxen] | – | – | failed to show efficacy | – |
| CS(=O)(=O)c1ccc(C2=C(c3ccccc3)C(=O)OC2)cc1 [rofecoxib] | – | – | failed to show efficacy | 6.4 |
